Experimental data published in patent US11717569B2, “Tolerogenic synthetic nanocarriers” (Selecta Biosciences, Inc., priority 2011, dated 2023).

Key:
[1] = tested on: iNKT cells; assay: CD69 activation on liver iNKT cells in vivo; settings: mice that received aGC
Experimental: Mice were designated to groups that received PBS alone, sol aGC+solRAPA, sol aGC+NP RAPA. Mice were injected at 9 am and at 9.30 AM received BrefeldinA i.v. to prevent release of intracellular cytokines produced. At 1 pm, mice were sacrificed and the liver was perfused with PBS and processed to obtain a single cell suspension enriched for lymphocytes. Cells were stained with cell surface markers for iNKT cells (agc-loaded CD1d tetramers) and T cells receptor (TCRb) and activation marker CD69. Cells were acquired on a FacsCanto flow cytometer and analyzed on by FlowJo.

[2] = tested on: Treg cells (CD4+CD25highFoxP3+); assay: Antigen-specific tolerogenic dendritic cells (tDC) activity on Treg cell development; type: cell-based, OTII mice; settings: FIG. 3; unstimulated 1.3%
Experimental: The assay included the use of OTII mice which have a transgenic T cell receptor specific for an immune-dominant ovalbumin peptide (323-339). In order to create antigen-specific tDCs, CD11c^+ splenocytes were isolated, and the ovalbumin peptide (323-339) added in vitro at 1 μg/ml or no antigen. Soluble or nanocarrier-encapsulated rapamycin was then added to the DCs for 2 hours which were then washed extensively to remove free rapamycin from the culture. Purified responder CD4^+CD25^− cells were isolated from OTII mice and added to tDC at a 10:1 T to DC ratio. The mixture of tDC and OTII T cells were then cultured for 4-5 days, and the frequency of Treg cells (CD4^+CD25highFoxP3^+) were analyzed by flow cytometry as shown in FIG. 1. Regions were selected based on isotype controls.
Free rapamycin or synthetic nanocarriers containing rapamycin were combined with free soluble Ovalbumin (323-339) to evaluate induction of tDC (FIG. 2). […] Briefly, antigen specific tDC were obtained by isolating dendritic cells (CD11c^+ splenocytes) and culturing them in combination with the Ovalbumin (323-339) peptide plus soluble or nanocarrier encapsulated rapamycin (Synthetic Nanocarrier #s 13, 14, 15 and 16) for 2 hours followed by extensive washing. […] The mixture of tDC and OTII T cells were then cultured for 4-5 days, and the frequency of Treg cells (CD4^+CD25highFoxP3^+) were analyzed by flow cytometry.

Compound	iNKT cell activation (cytokine production and up regulation of CD69) [1]	induction of FoxP3 expressing cells [2]
CCCCCCCCCCCCCCCCCCCCCCCCCC(=O)N[C@@H](CO[C@H]1O[C@H](CO)[C@H](O)[C@H](O)[C@H]1O)[C@H](O)[C@H](O)CCCCCCCCCCCCCC [aGC, α-Galactosyl Ceramide (KRN7000)]	activated	
CO[C@H]1C[C@@H]2CC[C@@H](C)[C@@](O)(O2)C(=O)C(=O)N2CCCC[C@H]2C(=O)O[C@H]([C@H](C)C[C@@H]2CC[C@@H](O)[C@H](OC)C2)CC(=O)[C@H](C)/C=C(\C)[C@@H](O)[C@@H](OC)C(=O)[C@H](C)C[C@H](C)/C=C/C=C/C=C/1C [free rapamycin, Rapamycin]		2.7%
